Experimental data: patent US8163779B2, “Glucokinase activators” (Takeda San Diego, Inc., priority 2006, dated 2012)

Target: T1, glucokinase (GK) (Homo sapiens, UniProt P35557)
T1 construct: I.D. No. 1 corresponds to residues 12-465 of glucokinase; made in house; host or cells: E. coli DH10b-T1r
T1 sequence (P35557 with tags, fused parts or gaps isoform P35557-2): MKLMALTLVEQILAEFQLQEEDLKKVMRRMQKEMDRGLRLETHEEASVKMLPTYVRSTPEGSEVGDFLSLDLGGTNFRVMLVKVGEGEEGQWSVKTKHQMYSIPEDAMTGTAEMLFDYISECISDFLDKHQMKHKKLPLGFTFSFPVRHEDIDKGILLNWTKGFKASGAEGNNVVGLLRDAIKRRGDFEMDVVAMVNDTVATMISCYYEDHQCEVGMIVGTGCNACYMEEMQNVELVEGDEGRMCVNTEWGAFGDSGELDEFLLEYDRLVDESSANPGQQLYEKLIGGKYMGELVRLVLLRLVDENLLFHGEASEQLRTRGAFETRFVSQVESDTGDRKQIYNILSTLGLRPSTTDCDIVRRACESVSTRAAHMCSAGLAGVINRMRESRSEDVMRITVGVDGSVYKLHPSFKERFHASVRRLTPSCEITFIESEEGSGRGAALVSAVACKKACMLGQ
Assay: enzymatic glucokinase activity assay (ATP consumption, KinaseGlo luminescence)
Format: biochemical
Conditions: recombinant GK residues 12-465; 5 μM ATP, 5 mM Glucose; Kact = concentration that displays 50% of the maximal increase in GK activity; read-out: pKact
In short: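 Activation was scored as ATP consumption, quantified by KinaseGlo luciferase luminescence after a 60 min room-temperature reaction. Reactions contained E. coli-expressed, purified GK, 5 μM ATP, 5 mM glucose, 10 mM MgCl2, 0.01% Brij35 and 2% DMSO at pH 7.2; pKact was fitted non-linearly.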

Compound	EC50 [µM]
O=C(Nc1ncc(Cl)s1)C(CC1CCOCC1)n1cc(S(=O)(=O)N2CCCC2)ccc1=O (stereo not drawn) [Example 140, N-(5-chlorothiazol-2-yl)-2-(2-oxo-5-(pyrrolidin-1ylsulfonyl)pyridin-1(2H)-yl)-3-(tetrahydro-2H-pyran-4-yl)propanamide]	1.58 to 15.8
Cc1cc(-c2ncco2)cc(=O)n1C(CC1CCCCC1)C(=O)Nc1ncc(Cl)s1 (stereo not drawn) [Example 143, N-(5-chlorothiazol-2-yl)-3-cyclohexyl-2-(6-methyl-4-(oxazol-2-yl)-2-oxopyridin-1(2H)-yl)propanamide]	1.58 to 15.8
O=C(Nc1ncc(CN2CCOCC2)s1)C(CC1CCOCC1)n1ccc(S(=O)(=O)C2CC2)cc1=O (stereo not drawn) [Example 145, 2-(4-(cyclopropylsulfonyl)-2-oxopyridin-1(2H)-yl)-N-(5-(morpholinomethyl)thiazol-2-yl)-3-(tetrahydro-2H-pyran-4-yl)propanamide]	> 15.8
CN1CCN(Cc2cnc(NC(=O)C(CC3CCOCC3)n3ccc(S(=O)(=O)C4CC4)cc3=O)s2)CC1 (stereo not drawn) [Example 147, 2-(4-(cyclopropylsulfonyl)-2-oxopyridin-1(2H)-yl)-N-(5-((4-methylpiperazin-1-yl)methyl)thiazol-2-yl)-3-(tetrahydro-2H-pyran-4-yl)propanamide]	> 15.8
CN(C)C(=O)CN1CCN(Cc2cnc(NC(=O)C(CC3CCOCC3)n3ccc(S(=O)(=O)C4CC4)cc3=O)s2)CC1 (stereo not drawn) [Example 150, 2-(4-(cyclopropylsulfonyl)-2-oxopyridin-1(2H)-yl)-N-(5-((4-(2-(dimethylamino)-2-oxoethyl)piperazin-1-yl)methyl)thiazol-2-yl)-3-(tetrahydro-2H-pyran-4-yl)propanamide]	> 15.8
Cc1c(S(=O)(=O)C2CCCC2)cc(=O)n([C@@H](CC2CCOCC2)C(=O)Nc2ncc(F)s2)c1C [Example 151, (S)-2-(4-(cyclopentylsulfonyl)-5,6-dimethyl-2-oxopyridin-1(2H)-yl)-N-(5-fluorothiazol-2-yl)-3-(tetrahydro-2H-pyran-4-yl)propanamide]	< 1.58
Cc1c(S(=O)(=O)C2CCCC2)cc(=O)n([C@H](CC2CCOCC2)C(=O)Nc2ncc(F)s2)c1C [Example 153, (R)-2-(4-(cyclopentylsulfonyl)-5,6-dimethyl-2-oxopyridin-1(2H)-yl)-N-(5-fluorothiazol-2-yl)-3-(tetrahydro-2H-pyran-4-yl)propanamide]	< 1.58
Cc1cc(S(=O)(=O)C2CC2)c(N)c(=O)n1[C@H](CC1CCCC1)C(=O)Nc1ncc(F)s1 [Example 154, (R)-2-(3-amino-4-(cyclopropylsulfonyl)-6-methyl-2-oxopyridin-1(2H)-yl)-3-cyclopentyl-N-(5-fluorothiazol-2-yl)propanamide]	1.58 to 15.8
Cc1cc(S(=O)(=O)C2CC2)c(N)c(=O)n1[C@@H](CC1CCCC1)C(=O)Nc1ncc(F)s1 [Example 155, (S)-2-(3-amino-4-(cyclopropylsulfonyl)-6-methyl-2-oxopyridin-1(2H)-yl)-3-cyclopentyl-N-(5-fluorothiazol2-yl)propanamide]	1.58 to 15.8
Cc1cc(S(=O)(=O)C2CCS(=O)(=O)CC2)cc(=O)n1C(CC1CCCCC1)C(=O)Nc1ncc(Cl)s1 (stereo not drawn) [Example 160, N-(5-chlorothiazol-2-yl)-2-(4-(1,1-dioxotetrahydrothiopyran-4-ylsulfonyl)-6-methyl-2-oxopyndin-1(2H)-yl)-3-cyclohexylpropanamide]	1.58 to 15.8
Cc1cc(S(=O)(=O)C2CCS(=O)(=O)CC2)cc(=O)n1C(CC1CCCCC1)C(=O)Nc1ncc(F)s1 (stereo not drawn) [Example 161, N-(5-fluorothiazol-2-yl)-2-(4-(1,1-dioxotetrahydrothiopyran-4-ylsulfonyl)-6-methyl-2-oxopyridin-1(2H)-yl)-3-cyclohexyipropanamide]	1.58 to 15.8
Cc1cc(S(=O)(=O)C2CC2)cc(=O)n1[C@@H](CC1CCCC1)C(=O)Nc1ncc(F)s1 [Example 162, (S)-3-cyclopentyl-2-(4-(cyclopropylsulfonyl)-6-methyl-2-oxopyridin-1(2H)-yl)-N-(5-fluorothiazol-2-yl)propanamide]	< 1.58
Cc1cc(S(=O)(=O)C2CC2)cc(=O)n1[C@H](CC1CCCC1)C(=O)Nc1ncc(F)s1 [Example 163, (R)-3-cyclopentyl-2-(4-(cyclopropylsulfonyl)-6-methyl-2-oxopyridin-1(2H)-yl)-N-(5-fluorothiazol-2-yl)propanamide]	> 15.8

Now from value to compound:

EC50 [µM]	Compound
< 1.58	Cc1cc(S(=O)(=O)Cc2ccco2)cc(=O)n1[C@@H](CC1CCOCC1)C(=O)Nc1ncc(Cl)s1 [Example 141, (S)-N-(5-chlorothiazol-2-yl)-2-(4-(furan-2-ylmethylsulfonyl)-6-methyl-2-oxopyridin-1(2H)-yl)-3-(tetrahydro-2H-pyran-4-yl)propanamide]
> 15.8	Cc1cc(S(=O)(=O)Cc2ccco2)cc(=O)n1[C@H](CC1CCOCC1)C(=O)Nc1ncc(Cl)s1 [Example 142, (R)-N-(5-chlorothiazol-2-yl)-2-(4-(furan-2-ylmethylsulfonyl)-6-methyl-2-oxopyridin-1(2H)-yl)-3-(tetrahydro-2H-pyran-4-yl)propanamide]
1.58 to 15.8	Cc1cc(S(=O)(=O)Cc2ccco2)cc(=O)n1C(CC1CCOCC1)C(=O)Nc1ncc(Cc2ccc(F)cc2)s1 (stereo not drawn) [Example 144, N-(5-(4-fluorobenzyl)thiazol-2-yl)-2-(4-(furan-2-ylmethylsulfonyl)-6-methyl-2-oxopyridin-1(2H)-yl)-3-(tetrahydro-2H-pyran-4-yl)propanamide]
> 15.8	O=C(Nc1ncc(Cl)s1)C(CC1CCOCC1)n1ccc(S(=O)(=O)CC(F)(F)F)cc1=O (stereo not drawn) [Example 146, N-(5-chlorothiazol-2-yl)-2-(2-oxo-4-(2,2,2-trifluoroethylsulfonyl)pyridin-1(2H)-yl)-3-(tetrahydro-2H-pyran-4-yl)propanamide]
> 15.8	O=C(Nc1ncc(Cl)s1)[C@@H](CC1CCOCC1)n1ccc(S(=O)(=O)CC(F)(F)F)cc1=O [Example 148, (R)-N-(5-chlorothiazol-2-yl)-2-(2-oxo-4-(2,2,2-trifluoroethylsulfonyl)pyridin-1(2H)-yl)-3-(tetrahydro-2H-pyran-4-yl)propanamide]
1.58 to 15.8	O=C(Nc1ncc(Cl)s1)[C@H](CC1CCOCC1)n1ccc(S(=O)(=O)CC(F)(F)F)cc1=O [Example 149, (S)-N-(5-chlorothiazol-2-yl)-2-(2-oxo-4-(2,2,2-trifluoroethylsulfonyl)pyridin-1(2H)-yl)-3-(tetrahydro-2H-pyran-4-yl)propanamide]
> 15.8	CC(=O)Nc1ccc(=O)n(C(CC2CCOCC2)C(=O)Nc2ncc(Cl)s2)c1 (stereo not drawn) [Example 156, 2-(5-acetamido-2-oxopyridin-1(2H)-yl)-N-(5-chlorothiazol-2-yl)-3-(tetrahydro-2H-pyran-4-yl)propanamide]
1.58 to 15.8	Cc1cc(S(=O)(=O)C2CC2)cc(=O)n1C(CC1CCOCC1)C(=O)Nc1ncc(Cl)s1 (stereo not drawn) [Example 157, N-(5-chlorothiazol-2-yl)-2-(4-(cyclopropylsulfonyl)-6-methyl-2-oxopyridin-1(2H)-yl)-3-(tetrahydro-2H-pyran-4-yl)propanamide]
< 1.58	Cc1cc(S(=O)(=O)c2cccc(F)c2)cc(=O)n1C(CC1CCOCC1)C(=O)Nc1ncc(Cl)s1 (stereo not drawn) [Example 158, N-(5-chlorothiazol-2-yl)-2-(4-(3-fluorophenylsulfonyl)-6-methyl-2-oxopyridin-1(2H)-yl)-3-(tetrahydro-2H-pyran-4-yl)propanamide]
1.58 to 15.8	Cc1cc(S(=O)(=O)c2cccc(F)c2)cc(=O)n1C(CC1CCOCC1)C(=O)Nc1ncc(F)s1 (stereo not drawn) [Example 159, 2-(4-(3-fluorophenylsulfonyl)-6-methyl-2-oxopyridin-1(2H)-yl)-N-(5-fluorothiazol-2-yl)-3-(tetrahydro-2H-pyran-4-yl)propanamide]
> 15.8	Cc1cc(S(=O)(=O)C2CCCC2)cc(=O)n1[C@H](CC1CCOCC1)C(=O)Nc1ccc(F)cn1 [Example 164, (R)-2-(4-(cyclopentylsulfonyl)-6-methyl-2-oxopyridin-1(2H)-yl)-N-(5-fluoropyridin-2-yl)-3-(tetrahydro-2H-pyran-4-yl)propanamide]
1.58 to 15.8	Cc1cc(S(=O)(=O)C2CCCC2)cc(=O)n1[C@@H](CC1CCOCC1)C(=O)Nc1ccc(F)cn1 [Example 165, (S)-2-(4-(cyclopentylsulfonyl)-6-methyl-2-oxopyridin-1(2H)-yl)-N-(5-fluoropyridin-2-yl)-3-(tetrahydro-2H-pyran-4-yl)propanamide]
< 1.58	Cc1cc(S(=O)(=O)C2CCCC2)cc(=O)n1[C@@H](CC1CCOCC1)C(=O)Nc1ccc(Cl)cn1 [Example 166, (S)-N-(5-chloropyridin-2-yl)-2-(4-(cyclopentylsulfonyl)-6-methyl-2-oxopyridin-1(2H)-yl)-3-(tetrahydro-2H-pyran-4-yl)propanamide]
> 15.8	Cc1cc(S(=O)(=O)C2CCCC2)cc(=O)n1[C@H](CC1CCOCC1)C(=O)Nc1ccc(Cl)cn1 [Example 167, (R)-N-(5-chloropyridin-2-yl)-2-(4-(cyclopentylsulfonyl)-6-methyl-2-oxopyridin-1(2H)-yl)-3-(tetrahydro-2H-pyran-4-yl)propanamide]
